Laboratory results as given in US20250352612A1, “PHARMACEUTICAL AGENT TO PREVENT THE ADVERSE EFFECTS OF ROTAVIRUS NSP4 PROTEIN” (priority 2022, published 2025).

Experiments:
Format in all cases: cell-based
intestinal cell line = experiment: Intracellular calcium amount after NSP4 and PlnA administration in intestinal cell line; settings: co-administration of NSP4 and PlnA-containing agent
Text: In an exemplary embodiment of the pharmaceutical agent developed with the present invention, a pharmaceutical agent containing the Lactobacillus plantarum bacteriocin Plantaricin A (PlnA) is used to reduce the intracellular calcium content of the rotavirus NSP4 protein in the intestinal cell line. Thus, the amount of intracellular calcium increased by the NSP4 protein is reduced and, therefore, cell death and ER disruption caused by rotavirus through apoptosis is prevented by this strategy.

IL-10 [1] = experiment: IL-10 protein levels after NSP4 and PlnA administration; settings: NSP4 and PlnA-containing agent; for increase of IL-10 protein levels compared to the control group without any application: Graph 3
IL-10 [2] = experiment: IL-10 mRNA levels (gene expression) after NSP4 and PlnA administration; settings: NSP4 and PlnA containing agent together, Graph 5

“Plantaricin A [PlnA-containing pharmaceutical agent]” was tested, and the “decrease of amount of intracellular calcium compared to the NSP4-treated first group” value (intestinal cell line; 6th hour, Graph 1) was 3.75 fold, the “decrease of amount of intracellular calcium compared to the control group” value (intestinal cell line; 6th hour, Graph 1) was 1.64 fold and the “amount of intracellular calcium compared to the control group” value (intestinal cell line; 12 hours, Graph 2) was “the same amount of calcium was observed in the control group”. For the same substance, the “decrease of amount of intracellular calcium compared to the first group administered NSP4” value (intestinal cell line; 12 hours, Graph 2) was 2.67 times, the “increase of IL-10 protein levels compared to the control group without any application” value (IL-10 [1]; 3rd hour) was 2 fold and the “increase of IL-10 protein levels compared to the control group without any application” value (IL-10 [1]; 6th hour) was 1.43 fold. For the same substance, the “IL-10 protein levels compared to the control group” value (IL-10 [1]; 12 hours, Graph 4) was “no significant difference”, the “increase of IL-10 protein levels compared to the control group” value (IL-10 [1]; 24 hours, Graph 4) was 1.13 fold and the “increase of IL-10 mRNA level compared to the control group” value (IL-10 [2]; 12th hour) was 0.68 fold. The “NSP4-induced suppression of IL-10 gene expression” value (IL-10 [2]) was “this suppression was reduced”.
